These are literature values, as cited in paper PMC8414988 (Pediatric blood & cancer, 2021).

For data set [1] the following is noted: cited from earlier work.
The conditions of data set [2]: cited from earlier work. This is another data set of the same source.

In the case of `CC(=O)c1c(C)c2cnc(Nc3ccc(N4CCNCC4)cn3)nc2n(C2CCCC2)c1=O` [palbociclib], the permeability entry in data set [1] is “high permeability”. Moreover, the solubility result in data set [2] is recorded as “pH-dependent solubility”.
